Usually IC50 stands for the concentration at which inhibition is half-maximal.

Experimental findings from patent US10660967B2, “Curcumin conjugates and methods of use thereof” (priority 2016, dated 2020) are described below.

Like-named read-outs stand apart in the source and are kept apart here.

In experiment [1] the test system is carrageenan induced paw edema. The experiment can be described thus: Anti-inflammatory activity: acute carrageenan induced paw edema in rats. The settings on record: at 4 h effect; 10 mg kg^−1 indomethacin mol equivalent. The format is in vivo, Wister rats. Put shortly:
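Wistar rats (120–150 g, n=6/group) received subplantar 1% carrageenan in the right hind paw, and DMSO-vehicle animals served as controls. Results are given as % inhibition of edema thickness versus control.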

Experiment [2] relates to PHA-stimulated splenocytes. The experiment can be described thus: Proliferative response of PHA-stimulated splenocytes (MTT assay). The settings on record: PHA 5 μg/ml, 72 hr; compounds at 5 μM (method says 10 μM); ratio of O.D. versus vehicle control. The format is cell-based. The procedure, abridged: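 Freshly prepared splenocytes (1×10^6 cells/well) were cultured for 72 h at 37° C with compound at 10 μM final, with or without PHA (5 μg/ml). Viability was read by MTT (4 h), with absorbance at 570 nm against 690 nm reference. Stimulation index is the OD ratio of treated versus vehicle cultures.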

Experiment [3] relates to Salmonella typhi ATCC19430. Briefly: Antimicrobial MIC, agar dilution. The format is cell-based. The note with it: Salmonella enterica, read-out: Minimum inhibitory concentration (MIC).
The test system of experiment [4] is HCT116 (colon) carcinoma cell line. Briefly: Anti-tumor properties, MTT. The format is cell-based. The settings on record: Homo sapiens, HCT-116. Put shortly: (§1)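 Cells seeded at 10×10^3 per well for 24 h, then exposed to compound in serum-free medium (final up to 100 μM, 0.5% DMSO vehicle) for 72 h in triplicate. Viability by MTT reduction (4 h, SDS solubilised), absorbance 595 nm/ref 620 nm; IC50 from survival curves.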

Experiment [5] has as its system HepG2 (hepatocellular) carcinoma cell line. Briefly: Anti-tumor properties, MTT. The experiment is classed as cell-based. The settings on record: Homo sapiens. The procedure, abridged:
as §1

Experiment [6] concerns MCF7 (breast) carcinoma cell line. Briefly: Anti-tumor properties, MTT. The format is cell-based. The settings on record: Homo sapiens. The procedure, abridged: as §1
Experiment [7] has as its system Pseudomonas aeruginosa ATCC27853. The experiment can be described thus: Antimicrobial MIC, agar dilution.
Where [8] appears, read: ATCC27853, 18 h, read-out: Minimum inhibitory concentration (MIC).
Where [9] appears, read: ATCC27853, read-out: Minimum inhibitory concentration (MIC).

On to `COc1cc(/C=C/C(=O)CC(=O)/C=C/c2ccc(OC(=O)C(C)NC(=O)OCc3ccccc3)c(OC)c2)ccc1OC(=O)C(C)NC(=O)OCc1ccccc1` (racemic) [Cbz-DL-Ala-Cur, ((1E,6E)-3,5-dioxohepta-1,6-diene-1,7-diyl)bis(2-methoxy-4,1-phenylene) bis(2-(((benzyloxy)carbonyl)amino)propanoate)], for which the “Potency (% inhibition of edema relative to that of indomethacin reference standard)” value in experiment [1] is listed as 115. The “Stimulation Index (average ± SD)” value in experiment [2] is listed as 1.18 ± 0.09. Also, the MIC worked out at 0.5 µg/mL in experiment [3] (18 h), 0.642 µM in experiment [3], 0.25 µg/mL in experiment [7] (setting [8]) and 0.321 µM in experiment [7] (setting [9]). Besides, the activity at 100 µM in experiment [4] (HCT116, 100 μM, 72 h, read-out: Percentage growth of tumor cell lines treated with the tested compounds (±SD)) was found to be 92 ± 2.1%; in experiment [5] (HepG2, 100 μM, 72 h, read-out: Percentage growth of tumor cell lines treated with the tested compounds (±SD)), 82.9 ± 4.1%; in experiment [6] (MCF7, 100 μM, 72 h, read-out: Percentage growth of tumor cell lines treated with the tested compounds (±SD)), 62.7 ± 4.7%.
For `COc1cc(/C=C/C(=O)CC(=O)/C=C/c2ccc(OC(=O)[C@H](N)CCSC)c(OC)c2)ccc1OC(=O)[C@H](N)CCSC.Cl.Cl` [HCl-D-Met-Cur, (2R,2′R)-1,1′-((((1E,6E)-3,5-dioxohepta-1,6-diene-1,7-diyl)bis(2-methoxy-4,1-phenylene))bis(oxy))bis(4-(methylthio)-1-oxobutan-2-aminium) chloride], the “Potency (% inhibition of edema relative to that of indomethacin reference standard)” value in experiment [1] is 113. In addition, the “Stimulation Index (average ± SD)” value in experiment [2] is 1.01 ± 0.15. Moreover, the MIC was 0.25 µg/mL in experiment [3] (18 h), 0.355 µM in experiment [3], 1 µg/mL in experiment [7] (setting [8]) and 1.42 µM in experiment [7] (setting [9]). The IC50 came out at 46.7 µM in experiment [4] (read-out: IC50 (μM) HCT116 (colon)); 43.6 µM in experiment [5] (HepG2, read-out: IC50 (μM) HepG2 (liver)); 10.2 µM in experiment [6] (MCF7, read-out: IC50 (μM) MCF7 (breast)).
